Results published in publication PMC9059125 (Journal of Medicinal Chemistry, 2022).
Where two headings read alike, the source gives them in different places. *1 amine or outer side, *2 acyl side, *3 side chain or, on linkers, in order; H or OH if unused. Where a SMILES comes first, the peptide text is derived from it. Bridges are numbered along the chain shown (N, C = ends). X1 = O=C(CCC[*:2])[*:1]

What was measured:
[1] = simulated gi fluid, pH 1.2
[2] = simulated gi fluid, pH 6.8
[3] = target: T1, hOTR (Homo sapiens, UniProt P30559); assay: cell-based
T1 construct: expressed in transfected cells; host or cells: COS-1 cells (ATCC), transient transfection with FuGENE HD
T1 sequence (P30559 1-389): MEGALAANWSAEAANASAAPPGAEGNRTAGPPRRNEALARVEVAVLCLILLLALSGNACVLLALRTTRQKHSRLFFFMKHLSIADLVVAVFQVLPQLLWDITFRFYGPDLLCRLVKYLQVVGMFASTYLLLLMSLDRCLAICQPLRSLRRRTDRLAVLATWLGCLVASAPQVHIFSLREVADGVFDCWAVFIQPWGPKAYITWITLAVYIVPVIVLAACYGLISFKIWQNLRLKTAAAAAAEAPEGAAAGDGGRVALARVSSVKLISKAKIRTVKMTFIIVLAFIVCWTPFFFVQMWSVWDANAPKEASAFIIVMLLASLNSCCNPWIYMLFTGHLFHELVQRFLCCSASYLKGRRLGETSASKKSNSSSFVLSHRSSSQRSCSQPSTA

[4] = target: T2, human oxytocin receptor (OTR) (Homo sapiens, UniProt P30559); settings: cited from earlier work
T2 construct: NIMH PDSP (data provider)
T2 sequence (P30559 1-389): T1 sequence (P30559 1-389)

[5] = simulated gi fluid; cited from earlier work
[6] = target: T2, human oxytocin receptor (OTR); assay: NIMH PDSP FLIPR-TETRA Ca2+-mobilization assay; format: cell-based
[7] = in vitro; settings: pig, simulated gi fluid, pH 6.8

Structure (SMILES)	t1/2 SGF [1] [h]	t1/2 SIF [2] [h]	t1/2 SIF ([2]; pig) [h]	further results
CC(C)C[C@@H]1NC(=O)CNC(=O)[C@H](CC(N)=O)NC(=O)[C@H](CCCNC(=N)N)NC(=O)[C@H]([C@@H](C)O)NC(=O)[C@@H]2CSSC[C@@H]3NC(=O)[C@H]([C@@H](C)O)NC(=O)CNC(=O)CNC(=O)[C@H](C(C)C)NC(=O)[C@@H]4CSSC[C@H](NC(=O)[C@H]([C@@H](C)O)NC(=O)[C@H](CSSC[C@H](NC(=O)[C@H](C(C)C)NC(=O)[C@@H]5CCCN5C1=O)C(=O)NCC(=O)N[C@@H](CCC(=O)O)C(=O)N[C@@H]([C@@H](C)O)C(=O)N4)NC(=O)CNC(=O)[C@@H]1CCCN1C(=O)[C@H]([C@@H](C)O)NC(=O)[C@H](CC(N)=O)NC3=O)C(=O)N[C@@H](CO)C(=O)N[C@@H](Cc1c[nH]c3ccccc13)C(=O)N1CCC[C@H]1C(=O)N[C@@H](C(C)C)C(=O)N2 [Kalata B1, reference compound]	>24	>24		
CC[C@H](C)[C@@H]1NC(=O)[C@H](Cc2ccc(O)cc2)NC(=O)[C@@H]2CSSC[C@@H]3NC(=O)[C@H](C(C)C)NC(=O)[C@@H]4CCCN4C(=O)[C@H](Cc4c[nH]c5ccccc45)NC(=O)[C@H](CO)NC(=O)[C@@H]4CSSC[C@H](NC(=O)[C@H]([C@@H](C)O)NC(=O)[C@H](CCC(=O)O)NC(=O)CNC(=O)[C@H](CSSC[C@H](NC(=O)[C@H](CC(N)=O)NC(=O)[C@H]([C@@H](C)O)NC1=O)C(=O)N[C@@H]([C@@H](C)O)C(=O)N4)NC(=O)[C@H](C(C)C)NC(=O)[C@@H]1CCCN1C(=O)[C@H](CC(C)C)NC(=O)CNC(=O)[C@H](CC(N)=O)NC(=O)[C@H](CCCNC(=N)N)NC(=O)[C@H]([C@@H](C)O)NC3=O)C(=O)N[C@@H](C(C)C)C(=O)NCC(=O)NCC(=O)N[C@@H]([C@@H](C)O)C(=O)N2 [KB1(T^4G^7OT^[2-5])]		>24		EC50 [3]: > 10000 nM
CC[C@H](C)[C@@H]1NC(=O)[C@H](Cc2ccc(O)cc2)NC(=O)[C@@H]2CSSC[C@@H]3NC(=O)[C@H]([C@@H](C)CC)NC(=O)[C@@H]4CCCN4C(=O)[C@H](Cc4c[nH]c5ccccc45)NC(=O)[C@H](CO)NC(=O)[C@@H]4CSSC[C@H](NC(=O)[C@H]([C@@H](C)O)NC(=O)[C@H](CCC(=O)O)NC(=O)CNC(=O)[C@H](CSSC[C@H](NC(=O)[C@H](CC(N)=O)NC(=O)[C@H]([C@@H](C)O)NC1=O)C(=O)N[C@@H]([C@@H](C)O)C(=O)N4)NC(=O)[C@H](C(C)C)NC(=O)[C@@H]1CCCN1C(=O)[C@H](CC(C)C)NC(=O)CNC(=O)[C@H](CC(N)=O)NC(=O)[C@H](CCCNC(=N)N)NC(=O)[C@H](CCCCN)NC3=O)C(=O)N[C@@H]([C@@H](C)O)C(=O)N[C@@H](CC(C)C)C(=O)NCC(=O)N[C@@H]([C@@H](C)O)C(=O)N2 [KB7(T^4G^7OT^[2-5])]		>24		EC50 [3]: > 10000 nM
NC(=O)CC[C@@H]1NC(=O)[C@H](Cc2ccccc2)NC(=O)[C@H](Cc2ccc(O)cc2)NC(=O)[C@@H](N)CSSC[C@@H](C(=O)N2CCC[C@H]2C(=O)N[C@@H](CCCN=C(N)N)C(=O)NCC(N)=O)NC(=O)[C@H](CC(N)=O)NC1=O [Vasopressin, reference compound]	>24	<0.05		
CC[C@H](C)[C@@H]1NC(=O)[C@H](Cc2ccc(O)cc2)NC(=O)[C@@H](N)CSSC[C@@H](C(=O)N2CCC[C@H]2C(=O)N[C@@H](CC(C)C)C(=O)NCC(N)=O)NC(=O)[C@H](CC(N)=O)NC(=O)[C@H](CCC(N)=O)NC1=O [Oxytocin, reference compound]	>24		0.13 ± 0.017	
CC[C@H](C)[C@@H]1NC(=O)[C@H](Cc2ccc(O)cc2)NC(=O)[C@@H](N)CSSC[C@@H](C(=O)N2CCC[C@H]2C(=O)N[C@@H](CC(C)C)C(=O)N(C)CC(N)=O)NC(=O)[C@H](CC(N)=O)NC(=O)[C@H](CCC(N)=O)NC1=O [(Nα-Me)G^9OT]			2.9 ± 0.1	reduced potency compared to native OT [4]: ~10 fold
CC[C@H](C)[C@@H]1NC(=O)[C@H](Cc2ccc(O)cc2)NC(=O)[C@@H](N)CSSC[C@@H](C(=O)N2CCC[C@H]2C(=O)N[C@H](CC(=O)NCC(N)=O)CC(C)C)NC(=O)[C@H](CC(N)=O)NC(=O)[C@H](CCC(N)=O)NC1=O [(β^3-homo)L^8OT]			3.6 ± 0.1	
CC[C@H](C)[C@@H]1NC(=O)[C@H](Cc2ccc(OC)cc2)NC(=O)CCCSC[C@@H](C(=O)N2CCC[C@H]2C(=O)N[C@@H](CC(C)C)C(=O)NCC(N)=O)NC(=O)[C@H](CC(N)=O)NC(=O)[C@H](CCC(N)=O)NC1=O [Carbetocin, reference compound] (Y(Me)IQNCPLG-NH2; linker N-5 via X1)	>24		0.217 ± 0.017	
CC[C@H](C)[C@@H]1NC(=O)[C@H](Cc2ccc(O)cc2)NC(=O)[C@@H]2CSSC[C@@H]3NC(=O)[C@H](C(C)C)NC(=O)[C@@H]4CCCN4C(=O)[C@H](Cc4c[nH]c5ccccc45)NC(=O)[C@H](CO)NC(=O)[C@@H]4CSSC[C@H](NC(=O)[C@H]([C@@H](C)O)NC(=O)[C@H](CCC(=O)O)NC(=O)CNC(=O)[C@H](CSSC[C@H](NC(=O)[C@H](CC(N)=O)NC(=O)[C@H](CCC(N)=O)NC1=O)C(=O)N[C@@H]([C@@H](C)O)C(=O)N4)NC(=O)[C@H](C(C)C)NC(=O)[C@@H]1CCCN1C(=O)[C@H](CC(C)C)NC(=O)CNC(=O)[C@H](CC(N)=O)NC(=O)[C@H](CCCNC(=N)N)NC(=O)[C@H]([C@@H](C)O)NC3=O)C(=O)N[C@@H](C(C)C)C(=O)NCC(=O)NCC(=O)N[C@@H]([C@@H](C)O)C(=O)N2 [KB1(OT^[2-5])]		>24		EC50 [3]: > 10000 nM
C[C@@H]1NC(=O)[C@@H]2CCCN2C(=O)[C@H](CC(N)=O)NC(=O)[C@@H]2CSSC[C@H](N)C(=O)N[C@H]3CSSC[C@H](NC1=O)C(=O)N[C@@H]([C@@H](C)O)C(=O)NCC(=O)N[C@H](C(=O)N[C@@H](Cc1ccc(O)cc1)C(=O)O)CSSC[C@H](NC(=O)[C@H](Cc1ccc(O)cc1)NC(=O)[C@H](CCC(=O)O)NC3=O)C(=O)N2 [Linaclotide] (HELM PEPTIDE1{C.C.E.Y.C.C.N.P.A.C.T.G.C.Y}$PEPTIDE1,PEPTIDE1,1:R3-6:R3|PEPTIDE1,PEPTIDE1,2:R3-10:R3|PEPTIDE1,PEPTIDE1,5:R3-13:R3$$$V2.0)	>24		0.9 ± 0.05	reported t1/2 in SIF [5]: 0.267 h
CC[C@H](C)[C@@H]1NC(=O)[C@H](Cc2ccc(O)cc2)NC(=O)[C@@H](N)CSSC[C@@H](C(=O)N2CCC[C@H]2C(=O)N[C@@H](CC(C)C)C(=O)NNC(N)=O)NC(=O)[C@H](CC(N)=O)NC(=O)[C@H](CCC(N)=O)NC1=O [G^9(aza)OT]		<0.05		EC50 [6]: 2.24 ± 0.63 nM; Emax ± SEM OTR [6]: 111 ± 6
CC[C@H](C)[C@@H]1NC(=O)[C@H](Cc2ccc(O)cc2)NC(=O)[C@@H](N)CSSC[C@@H](C(=O)N2CCC[C@H]2C(=O)N[C@@](C)(CC(C)C)C(=O)NCC(N)=O)NC(=O)[C@H](CC(N)=O)NC(=O)[C@H](CCC(N)=O)NC1=O [(Cα-Me)L^8OT]			4.4 ± 0.3	EC50 [6]: 3.8 ± 2.7 nM; Emax ± SEM OTR [6]: 105 ± 11; bioactivity at OTR compared to native OT [6]: equipotent to native OT
CC[C@H](C)[C@@H]1NC(=O)[C@@H]2CSSC[C@H](NC(=O)[C@H](CCCNC(=N)N)NC(=O)[C@@H]3CSSC[C@H](NC1=O)C(=O)N[C@@H]([C@@H](C)O)C(=O)N[C@@H](CCCNC(=N)N)C(=O)NCC(=O)N[C@@H](Cc1ccccc1)C(=O)N3)C(=O)N[C@@H](CC(C)C)C(=O)N[C@H]1CSSC[C@H](NC(=O)[C@H](C(C)C)NC(=O)CNC(=O)[C@H](CCCNC(=N)N)NC(=O)[C@H](CCCNC(=N)N)NC1=O)C(=O)N[C@@H](CCCNC(=N)N)C(=O)N2 [RTD-1] (HELM PEPTIDE1{G.F.C.R.C.L.C.R.R.G.V.C.R.C.I.C.T.R}$PEPTIDE1,PEPTIDE1,3:R3-16:R3|PEPTIDE1,PEPTIDE1,5:R3-14:R3|PEPTIDE1,PEPTIDE1,7:R3-12:R3|PEPTIDE1,PEPTIDE1,1:R1-18:R2$$$V2.0)	2.2 ± 0.3	0.05 ± 0.017		half-life [7]: < 3 min
NC(=O)CC[C@@H]1NC(=O)[C@H](Cc2ccccc2)NC(=O)[C@H](Cc2ccc(O)cc2)NC(=O)CCSSC[C@@H](C(=O)N2CCC[C@H]2C(=O)N[C@H](CCCN=C(N)N)C(=O)NCC(N)=O)NC(=O)[C@H](CC(N)=O)NC1=O [Desmopressin]				reported t1/2 in SIF [5]: 0.5 h
CC(C)C[C@H](NC(=O)[C@@H]1CSSC[C@@H]2NC(=O)[C@H](CC(C)C)NC(=O)[C@H](CCC(=O)O)NC(=O)[C@@H](NC(=O)[C@H](CCC(=O)O)NC(=O)[C@H](CC(=O)O)NC(=O)[C@@H](N)CC(N)=O)CSSC[C@H](NC(=O)[C@H](C)NC(=O)[C@H](C(C)C)NC(=O)[C@H](CC(N)=O)NC(=O)[C@H](C(C)C)NC2=O)C(=O)N[C@@H]([C@@H](C)O)C(=O)NCC(=O)N1)C(=O)O [Plecanatide, reference compound]	>24		0.083 ± 0.017	
CC(C)C[C@@H]1NC(=O)[C@H](CCC(=O)O)NC(=O)[C@@H](NC(=O)[C@H](CCC(=O)O)NC(=O)[C@H](CC(=O)O)NC(=O)[C@H](N)CC(N)=O)CSSC[C@@H]2NC(=O)[C@H](C)NC(=O)[C@H](C(C)C)NC(=O)[C@H](CC(N)=O)NC(=O)[C@H](C(C)C)NC(=O)[C@H](CSSC[C@@H](C(=O)N[C@H](CC(C)C)C(=O)O)NC(=O)CNC(=O)[C@H]([C@@H](C)O)NC2=O)NC1=O [Dolcanatide, reference compound]	>24	>24		
